Measured values taken from patent US20250332173A1, “COMPOUNDS AND METHODS FOR MODULATING NUCLEIC ACID SPLICING” (REMIX THERAPEUTICS INC., priority 2021, published 2025).
Read-outs that look alike come from different tables or passages of the source.

Tests used:
[1] = test system: MYB mRNA; experiment: RT-qPCR splicing assay, MYB canonical junction (CJ) and alternative junction (AJ) mRNA; assay type: cell-based, human; conditions: Homo sapiens; for AC50: increase in MYB alternative junction (AJ) mRNA, read-out: MYB AJ AC50
Outline: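 A673 cells (normalized to PPIA) or K562 cells (normalized to GAPDH or GUSB) were treated 24 h at 37 °C with an 11-point 3-fold dilution series, top 10 uM, DMSO ≤0.25%. Cell lysates went to one-step RT-qPCR measuring canonical- and alternative-junction MYB or HTT transcripts.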

[2] = test system: SMN2 mRNA; experiment: RT-qPCR splicing assay, SMN2 canonical junction (CJ) mRNA; assay type: cell-based, human; conditions: Homo sapiens
Outline: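 A673 or K562 cells were treated for 24 h at 37 °C with compound in 11-point 3-fold dilution (top 10 uM final, DMSO ≤0.25%). Lysates then went to one-step RT-qPCR measuring canonical-junction mRNA, normalized to GAPDH, GUSB or PPIA.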

[3] = Table 5 panel, canonical junction qPCR, compound concentration having 50% response in CJ decrease, read-out: MYB IC50 (decrease in CJ mRNA levels)
[4] = decrease in MYB canonical junction (CJ) mRNA, RT-qPCR, read-out: MYB CJ IC50
[5] = Table 5 panel, canonical junction qPCR, compound concentration having 50% response in CJ decrease, read-out: SMN2 IC50 (decrease in CJ mRNA levels)
[6] = canonical junction qPCR panel, Table 5, read-out: MYB (decrease in CJ mRNA levels, IC50)
[7] = canonical junction qPCR panel, Table 5, read-out: SMN2 (decrease in CJ mRNA levels, IC50)

Structure (SMILES) | IC50 [1, 3] | IC50 [1, 4] | AC50 ([1]; RT-qPCR) | IC50 [2, 5] | IC50 [1, 6] | IC50 [2, 7]
Cc1cc(-c2cc3ccn(C4CCN(CCO)CC4)c(=O)c3cn2)cc2cn(C)nc12 [Compound 1210, 6-(2.7-dimethyl-2H-indazol-5-yl)-2-(1-(2-hydroxyethyl)piperidin-4-yl)-2,7-naphthyridin-1(2H)-one] | 1000 to 10000 nM | 100 to 1000 nM | 1000 to 10000 nM | 100 to 1000 nM |  | 
Cc1c(O)c(-c2ccc3c(=O)n([C@H]4CCNC4)ccc3n2)cc2cn(C)nc12 [Compound 1449, 2-(6-hydroxy-2,7-dimethyl-indazol-5-yl)-6-[(3S)-pyrrolidin-3-yl]-1,6-naphthyridin-5-one] |  | 100 to 1000 nM | 100 to 1000 nM |  | 100 to 1000 nM | < 100 nM
Cc1c(O)c(-c2ncc3c(=O)n(C4C[C@H]5C[C@@H]4CN5)ccc3n2)cc2cn(C)nc12 (stereo in doubt) [Compound 1444, 6-[(1R,4R,5R)-2-azabicyclo[2.2.1]heptan-5-yl]-2-(6-hydroxy-2,7-dimethyl-indazol-5-yl)pyrido[4,3-d]pyrimidin-5-one] |  | 100 to 1000 nM | 100 to 1000 nM |  | 100 to 1000 nM | < 100 nM
Cn1cc2cc(-c3ccc4c(=O)n(C5CCNCC5)cnc4c3)ccc2n1 [Compound 182] | 100 to 1000 nM | 100 to 1000 nM | 100 to 1000 nM | < 100 nM |  | 
Cc1cn2cc(-c3ccc4c(=O)n(C5CCNC5)ccc4n3)c(O)c(C)c2n1 (centres unmarked) [Compound 1302] |  | > 10000 nM | > 10000 nM |  | > 10000 nM | 1000 to 10000 nM
Cc1c(O)c(-c2ccc3c(=O)n(C4CC(C)NC(C)C4)ccc3n2)cc2cn(C)nc12 (centres unmarked) [Compound 1447, 6-(2,6-dimethyl-4-piperidyl)-2-(6-hydroxy-2,7-dimethyl-indazol-5-yl)-1,6-naphthyridin-5-one] |  | 100 to 1000 nM | 100 to 1000 nM |  | 100 to 1000 nM | < 100 nM
Cc1cn2cc(-c3ncc4c(=O)n([C@@H]5CCNC6(CC6)C5)ccc4n3)cc(F)c2n1 [Compound 1457, 6-[(7R)-4-azaspiro[2.5]octan-7-yl]-2-(8-fluoro-2-methyl-imidazo[1,2-a]pyridin-6-yl)pyrido[4,3-d]pyrimidin-5-one] |  | 100 to 1000 nM | 100 to 1000 nM |  | 100 to 1000 nM | < 100 nM
Cc1cn2cc(-c3ccc4c(=O)n(C5CCNCC5)ccc4n3)cc(C)c2n1 [Compound 1241, 2-(2,8-dimethylimidazo[1,2-a]pyridin-6-yl)-6-(piperidin-4-yl)-1,6-naphthyridin-5(6H)-one] |  | < 100 nM | < 100 nM |  | < 100 nM | < 100 nM
Cc1cn2cc(-c3ncc4c(=O)n([C@H]5CCNC5)ccc4n3)cc(F)c2n1 [Compound 1220] | 100 to 1000 nM | 100 to 1000 nM | 100 to 1000 nM | < 100 nM |  | 
Cc1cn2nc(-c3ccc4c(=O)n([C@H]5CCNC5)ccc4n3)cc(C)c2n1 [Compound 1437, 2-(2,8-dimethylimidazo[1,2-b]pyridazin-6-yl)-6-[(3S)-pyrrolidin-3-yl]-1,6-aphthyridin-5-one] |  | 100 to 1000 nM | 100 to 1000 nM |  | 100 to 1000 nM | < 100 nM
Cc1c(O)c(-c2ncc3c(=O)n(C4CCNC4)ccc3n2)cc2cn(C)nc12 (stereo in doubt) [Compound 1440, (6S)-2-(6-hydroxy-2,7-dimethyl-indazol-5-yl)-6-pyrrolidin-3-yl-pyrido[4,3-d]pyrimidin-5-one] |  | 100 to 1000 nM | 100 to 1000 nM |  | 100 to 1000 nM | < 100 nM
CCN1CCC(n2ncc3nc(-c4cc5cn(C)nc5cc4O)ccc3c2=O)CC1 [Compound 1310] |  | 1000 to 10000 nM | 1000 to 10000 nM |  | 1000 to 10000 nM | 100 to 1000 nM
Cc1c(O)c(-c2ncc3c(=O)n([C@@H]4C[C@H]5C[C@@H]4CN5)ccc3n2)cc2cn(C)nc12 (stereo in doubt) [Compound 1446, 6-[(1R,4R,5R)-2-azabicyclo[2.2.1]heptan-5-yl]-2-(6-hydroxy-2,7-dimethyl-indazol-5-yl)pyrido[4,3-d]pyrimidin-5-one] |  | 1000 to 10000 nM | 1000 to 10000 nM |  | 1000 to 10000 nM | 100 to 1000 nM
Cn1cc2cc(-c3cc4ccn(C5CCNCC5)c(=O)c4cn3)c(O)c(F)c2n1 [Compound 1199] | 1000 to 10000 nM | 100 to 1000 nM | 1000 to 10000 nM | < 100 nM |  | 
CCN1CCC(n2ccc3cc(-c4cc(C)c5nn(C)cc5c4)ncc3c2=O)CC1 [Compound 1207, 6-(2,7-dimethyl-2H-indazol-5-yl)-2-(1-ethylpiperidin-4-yl)-2,7-naphthyridin-1(2H)-one] | 1000 to 10000 nM | 1000 to 10000 nM | 1000 to 10000 nM | < 100 nM |  | 
Cc1cc(-c2cc3ccn(C4CCNCC4)c(=O)c3cn2)cc2cn(C)nc12 [Compound 1204, 6-(2,7-dimethyl-2H-indazol-5-yl)-2-(piperidin-4-yl)-2,7-naphthyridin-1(2H)-one] | 100 to 1000 nM | 100 to 1000 nM | 100 to 1000 nM | < 100 nM |  | 

Structure (SMILES) | IC50 [1, 3] | IC50 [1, 4] | AC50 ([1]; RT-qPCR) | IC50 [2, 5] | IC50 [1, 6] | IC50 [2, 7]
Cc1c(O)c(-c2ncc3c(=O)n([C@@H]4C[C@H]5CC[C@@H](C4)N5)ccc3n2)cc2cn(C)nc12 [Compound 1429, 6-[(1S,5R)-8-azabicyclo[3.2.1]octan-3-yl]-2-(6-hydroxy-2,7-dimethyl-indazol-5-yl)pyrido[4,3-d]pyrimidin-5-one] |  | < 100 nM | < 100 nM |  | < 100 nM | < 100 nM
Cn1cc2cc(-c3ccc4c(=O)n([C@H]5CCNC5)ccc4n3)c(O)c(F)c2n1 [Compound 1451, 2-(7-fluoro-6-hydroxy-2-methyl-indazol-5-yl)-6-[(3S)-pyrrolidin-3-yl]-1,6-naphthyridin-5-one] |  | 100 to 1000 nM | < 100 nM |  | < 100 nM | < 100 nM
Cc1cn2cc(-c3ncc4c(=O)n(C5CCNCC5)ccc4n3)c(O)c(C)c2n1 [Compound 1225] | 100 to 1000 nM | 100 to 1000 nM | 100 to 1000 nM | < 100 nM |  | 
COc1c(-c2cc3ccn(C4CCNCC4)c(=O)c3cn2)cc2cn(C)nc2c1F [Compound 1219] | 1000 to 10000 nM | 1000 to 10000 nM | 1000 to 10000 nM | 100 to 1000 nM |  | 
Cc1cn2cc(-c3cc(O)c4c(=O)n(C5CCNCC5)ccc4n3)cc(F)c2n1 [Compound 1448] |  | 100 to 1000 nM | 100 to 1000 nM |  | 100 to 1000 nM | < 100 nM
COc1c(-c2ccc3c(=O)n(C4CCNCC4)ccc3n2)cc2cn(C)nc2c1C [Compound 1243] |  | > 10000 nM | > 10000 nM |  | > 10000 nM | > 10000 nM
Cc1c(O)c(-c2ncc3c(=O)n([C@H]4C[C@@H](N)C4)ccc3n2)cc2cn(C)nc12 [Compound 1431, 6-((1s,3s)-3-aminocyclobutyl)-2-(6-hydroxy-2,7-dimethyl-2H-indazol-5-yl)pyrido[4,3-d]pyrimidin-5(6H)-one] |  | 1000 to 10000 nM | 1000 to 10000 nM |  | 1000 to 10000 nM | 100 to 1000 nM
Cn1cc2cc(-c3ccc4c(=O)n([C@@H]5CCNC6(CC6)C5)ccc4n3)c(O)cc2n1 [Compound 1246] |  | < 100 nM | < 100 nM |  | < 100 nM | < 100 nM
Cc1c(O)c(-c2ncc3c(=O)n(C4CCNC4)ccc3n2)cc2cn(C)nc12 (centres unmarked) [Compound 1222] | 100 to 1000 nM | 100 to 1000 nM | 100 to 1000 nM | < 100 nM |  | 
Cc1cn2nc(-c3ccc4c(=O)n([C@@H]5CCNC5)ccc4n3)cc(C)c2n1 [Compound 1438, 2-(2,8-dimethylimidazo[1,2-b]pyridazin-6-yl)-6-[(3R)-pyrrolidin-3-yl]-1,6-naphthyridin-5-one] |  | 100 to 1000 nM | 100 to 1000 nM |  | 100 to 1000 nM | < 100 nM
CN1CCC(n2ncc3nc(-c4cc5cn(C)nc5cc4O)ccc3c2=O)CC1 [Compound 1307] |  | 1000 to 10000 nM | 1000 to 10000 nM |  | 1000 to 10000 nM | 100 to 1000 nM
Cc1c(O)c(-c2ncc3c(=O)n([C@H]4CCNC(C)(C)C4)ccc3n2)cc2cn(C)nc12 [Compound 1436] |  | < 100 nM | < 100 nM |  | < 100 nM | < 100 nM
Cc1c(O)c(-c2ncc3c(=O)n(N4CCNCC4)ccc3n2)cc2cn(C)nc12 [Compound 1303] |  | < 100 nM | 100 to 1000 nM |  | 100 to 1000 nM | < 100 nM
Cc1cn2cc(-c3ccc4c(=O)n(C5CCNCC5)ccc4n3)cc(C#N)c2n1 [Compound 1297] |  | 100 to 1000 nM | 100 to 1000 nM |  | 100 to 1000 nM | < 100 nM
Cc1cn2nc(-c3ccc4c(=O)n(C5CCNCC5)ncc4c3)cc(C)c2n1 [Compound 186] | 100 to 1000 nM | 100 to 1000 nM | < 100 nM | < 100 nM |  | 
Cc1c(O)c(-c2ncc3c(=O)n([C@H]4CCN[C@@H](C)C4)ccc3n2)cc2cn(C)nc12 [Compound 1441, 2-(6-hydroxy-2,7-dimethyl-indazol-5-yl)-6-(2-methyl-4-piperidyl)pyrido[4,3-d]pyrimidin-5-one] |  | < 100 nM | < 100 nM |  | < 100 nM | < 100 nM
